According to US8859535B2, “Hydroxy substituted isoquinolinone derivatives” (Novartis AG, priority 2011, dated 2014):

How the values were obtained:
[1] = target: T1, human MDM2 protein (amino acids 2-188) (Homo sapiens, UniProt Q00987); assay: p53-MDM2 TR-FRET assay (p53-MDM2 Assay 1); format: binding; details: 1.25 nM MDM2-biotinylated, 10 nM Cy5-p53 peptide; read-out: IC50 (μM) of p53-Hdm2 inhibition (TR-FRET) Assay 1
T1 construct: human MDM2 protein (amino acids 2-188); made in house
Description: (§1) Time Resolved Fluorescence Energy Transfer (TR-FRET) Assay
(§2) The inhibition of p53-MDM2 and p53-MDM4 interactions is measured by time resolved fluorescence energy transfer (TR-FRET). Fluorescence energy transfer (or Foerster resonance energy transfer) describes an energy transfer between donor and acceptor fluorescent molecules. For this assay, human MDM2 protein (amino acids 2-188) and human MDM4 protein (amino acids 2-185), tagged with a C-terminal biotin moiety, are used in combination with a Europium labeled streptavidin (Perkin Elmer, Inc., Waltham, Mass., USA) serving as the donor fluorophore. The p53 derived, Cy5 labeled peptide Cy5-TFSDLWKLL (p53 aa18-26) is the energy acceptor. Upon excitation of the donor molecule at 340 nm, binding interaction between MDM2 or MDM4 and the p53 peptide induces energy transfer and enhanced response at the acceptor emission wavelength at 665 nm. Disruption of the formation of the p53-MDM2 or p53-MDM4 complex due to an inhibitor molecule binding to the p53 binding site of MDM2 or MDM4 results in increased donor emission at 620 nm. The ratiometric FRET assay readout is calculated from the raw data of the two distinct fluorescence signals measured in time resolved mode (fluorescence 665 nm/fluorescence 620 nm×1000).
(§3) After addition of 1.25 nM MDM2-biotinylated or 2.5 nM MDM4-biotinylated (internal preparations), and 0.625 nM Europium labeled streptavidin (Perkin Elmer), the solution is pre-incubated for 15 minutes at room temperature, then 10 nM Cy5-p53 peptide (internal preparation) is added before an incubation at room temperature for 15 minutes prior to reading the plate. For measurement of samples, a Victor II microplate reader (Perkin Elmer) is used with the following settings: Excitation 340 nm, Emission Donor 620 nm and Emission Acceptor 665 nm. IC50 values are calculated by curve fitting using XLfit. If not specified, reagents are purchased from Sigma-Aldrich Chemie GmBH, Buchs, Switzerland.
(§4) This assay was used to evaluate compounds displaying inhibition of p53-MDM2 interaction and p53-MDM4 interaction at IC50s of 0.005 to 50 μM (p53-MDM2 Assay 1 and p53-MDM4 Assay 1, respectively). For selected compounds displaying IC50s between […] on MDM2, a slightly modified assay is used with the following adaptations: 0.1 nM MDM2, 0.1 nM Europium labeled streptavidin and Tecan genios Pro is used as a microplate reader for the fluorescence measurements (p53-MDM2 Assay 2).

[2] = target: T2, human MDM4 protein (amino acids 2-185) (Homo sapiens, UniProt O15151); assay: p53-MDM4 TR-FRET assay (p53-MDM4 Assay 1); format: binding; details: 2.5 nM MDM4-biotinylated, 10 nM Cy5-p53 peptide; read-out: IC50 (μM) of p53-Hdm4 inhibition (TR-FRET) Assay 1
T2 construct: human MDM4 protein (amino acids 2-185); made in house
T2 sequence (O15151 2-185): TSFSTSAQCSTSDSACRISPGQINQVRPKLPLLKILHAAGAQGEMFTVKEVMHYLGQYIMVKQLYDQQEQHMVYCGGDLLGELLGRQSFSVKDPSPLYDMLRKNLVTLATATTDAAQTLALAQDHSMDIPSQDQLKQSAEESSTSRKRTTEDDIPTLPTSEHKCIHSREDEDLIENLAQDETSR
Description: as §1, §2, §3, §4

T1 sequence (Q00987 2-188): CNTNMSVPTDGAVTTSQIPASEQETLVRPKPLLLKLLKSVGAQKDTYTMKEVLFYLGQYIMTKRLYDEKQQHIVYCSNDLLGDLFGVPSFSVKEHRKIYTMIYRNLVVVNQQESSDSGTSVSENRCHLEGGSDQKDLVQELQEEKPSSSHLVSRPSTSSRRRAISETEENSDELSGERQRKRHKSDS

SMILES | IC50 [1] | IC50 [2]
COc1cc2c(cc1OC(C)C)[C@H](c1ccc(Cl)cc1)N(c1ccc(C3(O)CNC3)cc1)C(=O)C2 [Example 56, (S)-1-(4-Chloro-phenyl)-2-[4-(3-hydroxy-azetidin-3-yl)-phenyl]-7-isopropoxy-6-methoxy-1,4-dihydro-2H-isoquinolin-3-one] | 0.811 µM | –
COc1cc2c(cc1OC(C)C)[C@H](c1ccc(Cl)cc1)N(c1ccc(C(C)(O)c3cn(C)cn3)cc1)C(=O)C2 (stereo partly drawn) [Example 13, (S)-1-(4-Chloro-phenyl)-2-{4-[1-hydroxy-1-(1-methyl-1H-imidazol-4-yl)-ethyl]-phenyl}-7-isopropoxy-6-methoxy-1,4-dihydro-2H-isoquinolin-3-one] | 0.0608 µM | 82.7 µM
COc1cc2c(cc1OC(C)C)[C@H](c1ccc(Cl)cc1)N(c1ccc(C3(O)CN(C(=O)C4CC4)C3)cc1)C(=O)C2 [Example 61, (S)-1-(4-Chloro-phenyl)-2-[4-(1-cyclopropanecarbonyl-3-hydroxy-azetidin-3-yl)-phenyl]-7-isopropoxy-6-methoxy-1,4-dihydro-2H-isoquinolin-3-one] | 0.156 µM | –
COc1cc2c(cc1OC(C)C)[C@H](c1ccc(Cl)cc1)N(c1ccc(C(C)(O)C3CN(C(C)C)C3)cc1)C(=O)C2 (stereo partly drawn) [Example 72, (S)-1-(4-Chloro-phenyl)-2-{4-[1-hydroxy-1-(1-isopropyl-azetidin-3-yl)-ethyl]-phenyl}-7-isopropoxy-6-methoxy-1,4-dihydro-2H-isoquinolin-3-one] | 0.0234 µM | 18.4 µM
COc1ccc(C(O)(c2ccc(N3C(=O)Cc4cc(OC)c(OC(C)C)cc4[C@@H]3c3ccc(Cl)cc3)cc2)C(F)(F)F)cc1 (stereo partly drawn) [Example 7, (S)-1-(4-Chloro-phenyl)-7-isopropoxy-6-methoxy-2-{4-[2,2,2-trifluoro-1-hydroxy-1-(4-methoxy-phenyl)-ethyl]-phenyl}-1,4-dihydro-2H-isoquinolin-3-one] | 0.132 µM | 49.3 µM
COc1cc2c(cc1OC(C)C)[C@H](c1ccc(Cl)cc1)N(c1ccc([C@](C)(O)C3CC4CCC(C3)S4(=O)=O)cc1)C(=O)C2 (stereo partly drawn) [Example 173, (S)-1-(4-Chloro-phenyl)-2-{4-[(R)-1-(8,8-dioxo-8-thia-bicyclo[3.2.1]oct-3-yl)-1-hydroxy-ethyl]-phenyl}-7-isopropoxy-6-methoxy-1,4-dihydro-2H-isoquinolin-3-one] | 0.0943 µM | 41.4 µM
COc1cc2c(cc1OC(C)C)[C@H](c1ccc(Cl)cc1)N(c1ccc(C(C)(O)c3cccnc3)cc1F)C(=O)C2 (stereo partly drawn) [Example 20, (S)-1-(4-Chloro-phenyl)-2-[2-fluoro-4-(1-hydroxy-1-pyridin-3-yl-ethyl)-phenyl]-7-isopropoxy-6-methoxy-1,4-dihydro-2H-isoquinolin-3-one] | 0.0723 µM | –
CCC(C)(O)c1ccc(N2C(=O)Cc3cc(OC)c(OC(C)C)cc3[C@@H]2c2ccc(Cl)cc2)nc1 (stereo partly drawn) [Example 10, (S)-1-(4-Chloro-phenyl)-2-[5-(1-hydroxy-1-methyl-propyl)-pyridin-2-yl]-7-isopropoxy-6-methoxy-1,4-dihydro-2H-isoquinolin-3-one] | 0.247 µM | –
COc1cc2c(cc1OC(C)C)[C@H](c1ccc(Cl)cc1)N(c1ccc(C3(O)CN(C(=O)N(C)C)C3)cc1)C(=O)C2 [Example 59, 3-{4-[(S)-1-(4-Chloro-phenyl)-7-isopropoxy-6-methoxy-3-oxo-3,4-dihydro-1H-isoquinolin-2-yl]-phenyl}-3-hydroxy-azetidine-1-carboxylic acid dimethylamide] | 0.167 µM | –
COc1cc2c(cc1OC(C)C)[C@H](c1ccc(Cl)cc1)N(c1ccc(C3(O)CN(C(C)=O)C3)cc1)C(=O)C2 [Example 57, (S)-2-[4-(1-Acetyl-3-hydroxy-azetidin-3-yl)-phenyl]-1-(4-chloro-phenyl)-7-isopropoxy-6-methoxy-1,4-dihydro-2H-isoquinolin-3-one] | 0.262 µM | –
COc1cc2c(cc1OC(C)C)[C@H](c1ccc(Cl)cc1)N(c1ccc([C@](C)(O)C3CCC(F)(F)CC3)cc1)C(=O)C2 (single isomer, unassigned) [Example 46] | 0.422 µM | –
COc1cc2c(cc1OC(C)C)[C@H](c1ccc(Cl)cc1)N(c1ccc([C@](C)(O)C34CC5CC(CC(C5)C3)C4)cc1)C(=O)C2 (single isomer, unassigned) [Example 143] | 2.31 µM | –
COc1cc2c(cc1OC(C)C)[C@H](c1ccc(Cl)cc1)N(c1ccc(C(C)(O)C3C4CC5CC(C4)CC3C5)cc1)C(=O)C2 (stereo partly drawn) [Example 144, (S)-2-[4-(1-Adamantan-2-yl-1-hydroxy-ethyl)-phenyl]-1-(4-chloro-phenyl)-7-isopropoxy-6-methoxy-1,4-dihydro-2H-isoquinolin-3-one] | 0.123 µM | –
COc1ccc(C(O)(CO)c2ccc(N3C(=O)Cc4cc(OC)c(OC(C)C)cc4[C@@H]3c3ccc(Cl)cc3)cc2)cc1 (stereo partly drawn) [Example 44, (S)-1-(4-Chloro-phenyl)-2-{4-[1,2-dihydroxy-1-(4-methoxy-phenyl)-ethyl]-phenyl}-7-isopropoxy-6-methoxy-1,4-dihydro-2H-isoquinolin-3-one] | 0.0982 µM | –
COc1cc2c(cc1OC(C)C)[C@H](c1ccc(Cl)cc1)N(c1ccc(C(C)(O)C34CC5CC(CC(C5)C3)C4)cc1)C(=O)C2 (stereo partly drawn) [Example 141, (S)-2-[4-(1-Adamantan-1-yl-1-hydroxy-ethyl)-phenyl]-1-(4-chloro-phenyl)-7-isopropoxy-6-methoxy-1,4-dihydro-2H-isoquinolin-3-one] | 0.0251 µM | –

More lines, in order of falling IC50 [1], values ahead:

IC50 [1] | IC50 [2] | SMILES
0.459 µM | – | CCC(C)(O)c1ccc(N2C(=O)Cc3cc(OC)c(OC(C)C)cc3[C@@H]2c2ccc(Cl)cc2)cn1 (stereo partly drawn) [Example 9, (S)-1-(4-Chloro-phenyl)-2-[6-(1-hydroxy-1-methyl-propyl)-pyridin-3-yl]-7-isopropoxy-6-methoxy-1,4-dihydro-2H-isoquinolin-3-one]
0.247 µM | – | COc1cc2c(cc1OC(C)C)[C@H](c1ccc(Cl)cc1)N(c1ccc(C(C)(O)CCO)cc1)C(=O)C2 (stereo partly drawn) [Example 41, (S)-1-(4-Chloro-phenyl)-2-[4-(1,3-dihydroxy-1-methyl-propyl)-phenyl]-7-isopropoxy-6-methoxy-1,4-dihydro-2H-isoquinolin-3-one]
0.205 µM | – | COC(=O)N1CC(O)(c2ccc(N3C(=O)Cc4cc(OC)c(OC(C)C)cc4[C@@H]3c3ccc(Cl)cc3)cc2)C1 [Example 58, 3-{4-[(S)-1-(4-Chloro-phenyl)-7-isopropoxy-6-methoxy-3-oxo-3,4-dihydro-1H-isoquinolin-2-yl]-phenyl}-3-hydroxy-azetidine-1-carboxylic acid methyl ester]
0.0267 µM | 18.9 µM | CCC(C)(O)c1ccc(N2C(=O)Cc3cc(OC)c(OC(C)C)cc3[C@@H]2c2ccc(Cl)cc2)cc1 (stereo partly drawn) [Example 3, (S)-1-(4-Chloro-phenyl)-2-[4-(1-hydroxy-1-methyl-propyl)-phenyl]-7-isopropoxy-6-methoxy-1,4-dihydro-2H-isoquinolin-3-one]
0.0082 µM | 9.66 µM | CCN1CCC(N2CC(C(C)(O)c3ccc(N4C(=O)Cc5cc(OC)c(OC(C)C)cc5[C@@H]4c4ccc(Cl)cc4)cc3)C2)CC1 (stereo partly drawn) [Example 100, (S)-1-(4-Chloro-phenyl)-2-(4-{1-[1-(1-ethyl-piperidin-4-yl)-azetidin-3-yl]-1-hydroxy-ethyl}-phenyl)-7-isopropoxy-6-methoxy-1,4-dihydro-2H-isoquinolin-3-one]
0.00815 µM | 7.61 µM | COc1cc2c(cc1OC(C)C)[C@H](c1ccc(Cl)cc1)N(c1ccc(C(C)(O)C34CCC(CC3)O4)cc1)C(=O)C2 (mixture of isomers) [Example 135, (S)-1-(4-Chloro-phenyl)-2-{4-[1-hydroxy-1-(7-oxa-bicyclo[2.2.1]hept-1-yl)-ethyl]-phenyl}-7-isopropoxy-6-methoxy-1,4-dihydro-2H-isoquinolin-3-one]
0.0023 µM | 1.52 µM | COc1cc2c(cc1OC(C)C)[C@H](c1ccc(Cl)cc1)N(c1ccc([C@@](C)(O)C3CCOCC3)c(F)c1)C(=O)C2 (single isomer, unassigned) [Example 39]
